These compounds were tested against HSD17B13 (Homo sapiens (Human), UniProt Q7Z5P4) (assay: HSD17B13 enzymatic inhibition assay (150 nM or 50 nM HSD17B13)). Conditions: 50 nM HSD17B13; read-out: Inhibition of 50 nM of HSD17B13 IC50.
Format: biochemical

HSD17B13, sequence (Q7Z5P4 other isoform, or with tags, fused parts or gaps): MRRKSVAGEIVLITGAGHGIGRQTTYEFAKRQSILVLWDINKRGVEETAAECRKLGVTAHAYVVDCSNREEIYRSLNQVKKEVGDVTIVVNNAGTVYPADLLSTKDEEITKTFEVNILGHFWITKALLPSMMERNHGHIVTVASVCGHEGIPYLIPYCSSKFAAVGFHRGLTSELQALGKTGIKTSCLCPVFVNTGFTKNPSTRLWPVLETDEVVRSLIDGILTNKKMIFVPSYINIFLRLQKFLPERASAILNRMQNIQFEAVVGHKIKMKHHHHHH

Row | SMILES | IC50 [µM]
1 | Cc1ccc2c(c1)CC(C)C2NC(=O)c1ccc(C(F)(F)F)[nH]c1=O (centres unmarked) [Compound 296, N-(2,5-dimethyl-2,3-dihydro-1H-inden-1-yl)-2-oxo-6-(trifluoromethyl)-1,2-dihydropyridine-3-carboxamide] | 0.17
2 | CCC[C@@H]1C[C@H](NC(=O)c2ccc(C(F)(F)F)[nH]c2=O)C[C@H](CCC)O1 [Compound 303, N-((2R,4R,6S)-2,6-dipropyltetrahydro-2H-pyran-4-yl)-2-oxo-6-(trifluoromethyl)-1,2-dihydropyridine-3-carboxamide] | 3.06
3 | Cc1ccc2c(c1)[C@H](N)CC[C@H]2NC(=O)c1ccc(C(F)(F)F)[nH]c1=O [Compound 304, N-((1R,4R)-4-amino-6-methyl-1,2,3,4-tetrahydronaphthalen-1-yl)-2-oxo-6-(trifluoromethyl)-1,2-dihydropyridine-3-carboxamide] | > 10
4 | Cc1ccc2c(c1)[C@@H](N)CC[C@H]2NC(=O)c1ccc(C(F)(F)F)[nH]c1=O [Compound 305, N-((1R,4S)-4-amino-6-methyl-1,2,3,4-tetrahydronaphthalen-1-yl)-2-oxo-6-(trifluoromethyl)-1,2-dihydropyridine-3-carboxamide] | 7.85
5 | Cc1ccc2sc(C)c(NC(=O)c3ccc(C(F)(F)F)[nH]c3=O)c2c1 [Compound 310, N-(2,5-dimethylbenzo[b]thiophen-3-yl)-2-oxo-6-(trifluoromethyl)-1,2-dihydropyridine-3-carboxamide] | 0.68
6 | NCc1cccc2c1CCCC2NC(=O)c1ccc(C(F)(F)F)[nH]c1=O (centres unmarked) [Compound 313, N-(5-(aminomethyl)-1,2,3,4-tetrahydronaphthalen-1-yl)-2-oxo-6-(trifluoromethyl)-1,2-dihydropyridine-3-carboxamide] | > 10
7 | CC(C)(C)OC(=O)NCCN1Cc2ccccc2C(NC(=O)c2ccc(C(F)(F)F)[nH]c2=O)C1 (centres unmarked) [Compound 314, tert-butyl (2-(4-(2-oxo-6-(trifluoromethyl)-1,2-dihydropyridine-3-carboxamido)-3,4-dihydroisoquinolin-2(1H)-yl)ethyl)carbamate] | 5.52
8 | O=C(NC1CN(CCOCc2ccccc2)Cc2ccccc21)c1ccc(C(F)(F)F)[nH]c1=O (centres unmarked) [Compound 315, N-(2-(2-(benzyloxy)ethyl)-1,2,3,4-tetrahydroisoquinolin-4-yl)-2-oxo-6-(trifluoromethyl)-1,2-dihydropyridine-3-carboxamide] | 0.96
9 | Cc1ccc2c(c1)N(CCOCc1ccccc1)CCC2NC(=O)c1ccc(C(F)(F)F)[nH]c1=O (centres unmarked) [Compound 316, N-(1-(2-(benzyloxy)ethyl)-7-methyl-1,2,3,4-tetrahydroquinolin-4-yl)-2-oxo-6-(trifluoromethyl)-1,2-dihydropyridine-3-carboxamide] | 5.96
10 | CC(C)(C)OC(=O)N1Cc2ccccc2C(NC(=O)c2ccc(C(F)(F)F)[nH]c2=O)C1 (centres unmarked) [Compound 317, tert-butyl 4-(2-oxo-6-(trifluoromethyl)-1,2-dihydropyridine-3-carboxamido)-3,4-dihydroisoquinoline-2(1H)-carboxylate] | 4.03
11 | O=C(NC1c2ccncc2Oc2ccc(O)cc21)c1ccc(C(F)(F)F)[nH]c1=O (centres unmarked) [Compound 318, N-(7-hydroxy-5H-chromeno[2,3-c]pyridin-5-yl)-2-oxo-6-(trifluoromethyl)-1,2-dihydropyridine-3-carboxamide] | 7.25
12 | COc1ccc2c(c1)C(NC(=O)c1ccc(C(F)(F)F)[nH]c1=O)c1ccncc1O2 (centres unmarked) [Compound 319, N-(7-methoxy-5H-chromeno[2,3-c]pyridin-5-yl)-2-oxo-6-(trifluoromethyl)-1,2-dihydropyridine-3-carboxamide] | 0.83
13 | O=C(NC1c2ccncc2Oc2cc(O)ccc21)c1ccc(C(F)(F)F)[nH]c1=O (centres unmarked) [Compound 320, N-(8-hydroxy-5H-chromeno[2,3-c]pyridin-5-yl)-2-oxo-6-(trifluoromethyl)-1,2-dihydropyridine-3-carboxamide] | 0.6
14 | COc1ccc2c(c1)Oc1cccnc1C2NC(=O)c1ccc(C(F)(F)F)[nH]c1=O (centres unmarked) [Compound 322, N-(7-methoxy-10H-chromeno[3,2-b]pyridin-10-yl)-2-oxo-6-(trifluoromethyl)-1,2-dihydropyridine-3-carboxamide] | 0.3
15 | Cc1cc2c(cn1)C(NC(=O)c1ccc(C(F)(F)F)[nH]c1=O)c1ccccc1O2 (centres unmarked) [Compound 325, N-(3-methyl-10H-chromeno[3,2-c]pyridin-10-yl)-2-oxo-6-(trifluoromethyl)-1,2-dihydropyridine-3-carboxamide] | 0.18
16 | Cc1ccc2c(c1)Oc1cccnc1C2NC(=O)c1ccc(C(F)(F)F)[nH]c1=O (centres unmarked) [Compound 326, N-(7-methyl-10H-chromeno[3,2-b]pyridin-10-yl)-2-oxo-6-(trifluoromethyl)-1,2-dihydropyridine-3-carboxamide] | 0.06
17 | Cc1cccc2c1C(NC(=O)c1ccc(C(F)(F)F)[nH]c1=O)c1cnccc1O2 (centres unmarked) [Compound 329, N-(9-methyl-10H-chromeno[3,2-c]pyridin-10-yl)-2-oxo-6-(trifluoromethyl)-1,2-dihydropyridine-3-carboxamide] | 1.68
18 | O=C(NC1c2ccccc2Oc2cccnc21)c1ccc(C(F)(F)F)[nH]c1=O (centres unmarked) [Compound 331, N-(10H-chromeno[3,2-b]pyridin-10-yl)-2-oxo-6-(trifluoromethyl)-1,2-dihydropyridine-3-carboxamide] | 0.6

Row | SMILES | IC50 [µM]
19 | O=C(NC1c2ccccc2Oc2ccncc21)c1ccc(C(F)(F)F)[nH]c1=O (centres unmarked) [Compound 332, N-(10H-chromeno[3,2-c]pyridin-10-yl)-2-oxo-6-(trifluoromethyl)-1,2-dihydropyridine-3-carboxamide] | 1.29
20 | O=C(NC1c2ccccc2Oc2cnccc21)c1ccc(C(F)(F)F)[nH]c1=O (centres unmarked) [Compound 333, N-(5H-chromeno[2,3-c]pyridin-5-yl)-2-oxo-6-(trifluoromethyl)-1,2-dihydropyridine-3-carboxamide] | 0.74
21 | O=C(NC1c2ccccc2Oc2ncccc21)c1ccc(C(F)(F)F)[nH]c1=O (centres unmarked) [Compound 334, N-(5H-chromeno[2,3-b]pyridin-5-yl)-2-oxo-6-(trifluoromethyl)-1,2-dihydropyridine-3-carboxamide] | 2.39
22 | O=C(NC1CCCc2c(CCc3ccccc3)cccc21)c1ccc(C(F)(F)F)[nH]c1=O (centres unmarked) [Compound 335, 2-oxo-N-(5-phenethyl-1,2,3,4-tetrahydronaphthalen-1-yl)-6-(trifluoromethyl)-1,2-dihydropyridine-3-carboxamide] | 4.47
23 | CCN1CCC(NC(=O)c2ccc(C(F)(F)F)[nH]c2=O)c2ccc(C)cc21 (centres unmarked) [Compound 336, N-(1-ethyl-7-methyl-1,2,3,4-tetrahydroquinolin-4-yl)-2-oxo-6-(trifluoromethyl)-1,2-dihydropyridine-3-carboxamide] | 5.79
24 | CCCN1CCC(NC(=O)c2ccc(C(F)(F)F)[nH]c2=O)c2ccc(C)cc21 (centres unmarked) [Compound 337, N-(7-methyl-1-propyl-1,2,3,4-tetrahydroquinolin-4-yl)-2-oxo-6-(trifluoromethyl)-1,2-dihydropyridine-3-carboxamide] | 4.19
25 | Cc1ccc2c(c1)N(C)CCC2NC(=O)c1ccc(C(F)(F)F)[nH]c1=O (centres unmarked) [Compound 338, N-(1,7-dimethyl-1,2,3,4-tetrahydroquinolin-4-yl)-2-oxo-6-(trifluoromethyl)-1,2-dihydropyridine-3-carboxamide] | 4.26
26 | Cc1ccc2c(c1)C(NC(=O)c1ccc(C(F)(F)F)[nH]c1=O)CCN2 (centres unmarked) [Compound 339, N-(6-methyl-1,2,3,4-tetrahydroquinolin-4-yl)-2-oxo-6-(trifluoromethyl)-1,2-dihydropyridine-3-carboxamide] | 2.82
27 | CCCC1=Cc2ccc(C)cc2C1NC(=O)c1ccc(C(F)(F)F)[nH]c1=O (centres unmarked) [Compound 340, N-(6-methyl-2-propyl-1H-inden-1-yl)-2-oxo-6-(trifluoromethyl)-1,2-dihydropyridine-3-carboxamide] | 0.19
28 | CCCC1=C(NC(=O)c2ccc(C(F)(F)F)[nH]c2=O)c2ccc(C)cc2C1O (centres unmarked) [Compound 342, N-(1-hydroxy-6-methyl-2-propyl-1H-inden-3-yl)-2-oxo-6-(trifluoromethyl)-1,2-dihydropyridine-3-carboxamide] | 0.1
29 | CC1=C(NC(=O)c2ccc(C(F)(F)F)[nH]c2=O)c2ccccc2C1=O [Compound 343, N-(2-methyl-1-oxo-1H-inden-3-yl)-2-oxo-6-(trifluoromethyl)-1,2-dihydropyridine-3-carboxamide] | 6.26
30 | CCCC1=C(NC(=O)c2ccc(C(F)(F)F)[nH]c2=O)c2ccc(C)cc2C1=O [Compound 344, N-(6-methyl-1-oxo-2-propyl-1H-inden-3-yl)-2-oxo-6-(trifluoromethyl)-1,2-dihydropyridine-3-carboxamide] | 2.25
31 | O=C(NC1CCCc2c(CO)cccc21)c1ccc(C(F)(F)F)[nH]c1=O (centres unmarked) [Compound 345, N-(5-(hydroxymethyl)-1,2,3,4-tetrahydronaphthalen-1-yl)-2-oxo-6-(trifluoromethyl)-1,2-dihydropyridine-3-carboxamide] | 8.97
32 | O=C(NC1CCCc2c(CCO)cccc21)c1ccc(C(F)(F)F)[nH]c1=O (centres unmarked) [Compound 346, N-(5-(2-hydroxyethyl)-1,2,3,4-tetrahydronaphthalen-1-yl)-2-oxo-6-(trifluoromethyl)-1,2-dihydropyridine-3-carboxamide] | 7.03
33 | Cc1cccc2c1CCCC2NC(=O)c1ccc(C(F)(F)F)[nH]c1=O (centres unmarked) [Compound 347] | > 10
34 | O=C(NC1CCCc2c(-c3ccccc3)cccc21)c1ccc(C(F)(F)F)[nH]c1=O (centres unmarked) [Compound 348, 2-oxo-N-(5-phenyl-1,2,3,4-tetrahydronaphthalen-1-yl)-6-(trifluoromethyl)-1,2-dihydropyridine-3-carboxamide] | 9.84
35 | COc1ccc2c(c1)CCC(OC)C2NC(=O)c1ccc(C(F)(F)F)[nH]c1=O (centres unmarked) [Compound 349, N-(2,6-dimethoxy-1,2,3,4-tetrahydronaphthalen-1-yl)-2-oxo-6-(trifluoromethyl)-1,2-dihydropyridine-3-carboxamide] | 1.41

Reference: patent publication US11957687B2 (REGENERON PHARMACEUTICALS, INC., priority 2019, dated 2024)
